Assay results taken from article PMC3961306, “Comparison of the Cancer Gene Targeting and Biochemical Selectivities of All Targeted Kinase Inhibitors Approved for Clinical Use” (PLoS ONE, 2014).

Experiments:
Assay in all cases: Kinase profiling in a biochemical assay panel (mobility shift assays and ELISA), %-inhibition at 1 μM; selectivity entropy
[1] = target: panel of more than 300 wild-type and mutant kinases (313 kinase panel) (Homo sapiens, UniProt O60674); conditions: kinase JAK2; compound at 1 μM
[2] = target: panel of more than 300 wild-type and mutant kinases (313 kinase panel) (Homo sapiens, UniProt O75676); conditions: kinase MSK2; 1 μM
[3] = target: panel of more than 300 wild-type and mutant kinases (313 kinase panel) (Homo sapiens, UniProt P22694); conditions: kinase PKACβ; 1 μM
[4] = target: panel of more than 300 wild-type and mutant kinases (313 kinase panel) (Homo sapiens, UniProt P51812); conditions: kinase RSK2; 1 μM
[5] = target: panel of more than 300 wild-type and mutant kinases (313 kinase panel) (Homo sapiens, UniProt P53350); conditions: kinase PLK1; 1 μM
[6] = target: T1, panel of more than 300 wild-type and mutant kinases (313 kinase panel) (Homo sapiens, UniProt Q13163); conditions: kinase MAP2K5; compound at 1 μM
T1 sequence (Q13163 1-448): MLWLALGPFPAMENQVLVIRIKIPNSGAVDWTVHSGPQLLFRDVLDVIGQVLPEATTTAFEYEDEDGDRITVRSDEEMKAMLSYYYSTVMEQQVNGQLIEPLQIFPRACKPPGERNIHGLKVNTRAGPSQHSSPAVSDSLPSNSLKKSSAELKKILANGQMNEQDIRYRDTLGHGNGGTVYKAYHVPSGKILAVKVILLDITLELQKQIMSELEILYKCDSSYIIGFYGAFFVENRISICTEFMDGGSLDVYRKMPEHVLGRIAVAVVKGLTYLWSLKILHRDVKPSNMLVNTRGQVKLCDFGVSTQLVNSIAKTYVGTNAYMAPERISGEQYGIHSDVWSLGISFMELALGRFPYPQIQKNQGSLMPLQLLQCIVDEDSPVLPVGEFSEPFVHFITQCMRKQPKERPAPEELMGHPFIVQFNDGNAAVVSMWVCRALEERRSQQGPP

[7] = target: T2, panel of more than 300 wild-type and mutant kinases (313 kinase panel) (Homo sapiens, UniProt Q8IW41); conditions: kinase MAPKAPK5; compound at 1 μM
T2 sequence (Q8IW41 1-473): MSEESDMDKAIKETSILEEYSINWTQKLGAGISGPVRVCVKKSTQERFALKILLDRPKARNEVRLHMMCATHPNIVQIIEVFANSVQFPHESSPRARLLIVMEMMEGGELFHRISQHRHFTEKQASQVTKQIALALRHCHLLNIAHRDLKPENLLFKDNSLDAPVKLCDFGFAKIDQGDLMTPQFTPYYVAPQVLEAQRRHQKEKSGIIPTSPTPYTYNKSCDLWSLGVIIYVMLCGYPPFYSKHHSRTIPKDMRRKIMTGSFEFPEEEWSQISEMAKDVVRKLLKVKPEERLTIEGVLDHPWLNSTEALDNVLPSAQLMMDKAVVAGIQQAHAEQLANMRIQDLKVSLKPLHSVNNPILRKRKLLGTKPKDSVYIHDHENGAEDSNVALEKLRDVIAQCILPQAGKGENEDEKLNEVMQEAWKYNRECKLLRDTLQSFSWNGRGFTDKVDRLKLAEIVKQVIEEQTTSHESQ

[8] = target: panel of more than 300 wild-type and mutant kinases (313 kinase panel) (Homo sapiens, UniProt Q9H4A3); conditions: kinase WNK1; compound at 1 μM
[9] = system: panel of more than 300 wild-type and mutant kinases (313 kinase panel); conditions: for %-inhibition of EGFR(d746-750) / %-inhibition of EGFR(d746-750/T790M) / %-inhibition of LYNb / %-inhibition of PKCβ2 / %-inhibition of SRM / %-inhibition of EML4-ALK: 1 µM
[10] = target: panel of more than 300 wild-type and mutant kinases (313 kinase panel) (Homo sapiens, UniProt Q9UM73); conditions: kinase ALK; 1 μM compound

Sequence of panel of more than 300 wild-type and mutant kinases (313 kinase panel) (Homo sapiens, UniProt Q9H4A3) (Q9H4A3 whole entry, stated change not applied): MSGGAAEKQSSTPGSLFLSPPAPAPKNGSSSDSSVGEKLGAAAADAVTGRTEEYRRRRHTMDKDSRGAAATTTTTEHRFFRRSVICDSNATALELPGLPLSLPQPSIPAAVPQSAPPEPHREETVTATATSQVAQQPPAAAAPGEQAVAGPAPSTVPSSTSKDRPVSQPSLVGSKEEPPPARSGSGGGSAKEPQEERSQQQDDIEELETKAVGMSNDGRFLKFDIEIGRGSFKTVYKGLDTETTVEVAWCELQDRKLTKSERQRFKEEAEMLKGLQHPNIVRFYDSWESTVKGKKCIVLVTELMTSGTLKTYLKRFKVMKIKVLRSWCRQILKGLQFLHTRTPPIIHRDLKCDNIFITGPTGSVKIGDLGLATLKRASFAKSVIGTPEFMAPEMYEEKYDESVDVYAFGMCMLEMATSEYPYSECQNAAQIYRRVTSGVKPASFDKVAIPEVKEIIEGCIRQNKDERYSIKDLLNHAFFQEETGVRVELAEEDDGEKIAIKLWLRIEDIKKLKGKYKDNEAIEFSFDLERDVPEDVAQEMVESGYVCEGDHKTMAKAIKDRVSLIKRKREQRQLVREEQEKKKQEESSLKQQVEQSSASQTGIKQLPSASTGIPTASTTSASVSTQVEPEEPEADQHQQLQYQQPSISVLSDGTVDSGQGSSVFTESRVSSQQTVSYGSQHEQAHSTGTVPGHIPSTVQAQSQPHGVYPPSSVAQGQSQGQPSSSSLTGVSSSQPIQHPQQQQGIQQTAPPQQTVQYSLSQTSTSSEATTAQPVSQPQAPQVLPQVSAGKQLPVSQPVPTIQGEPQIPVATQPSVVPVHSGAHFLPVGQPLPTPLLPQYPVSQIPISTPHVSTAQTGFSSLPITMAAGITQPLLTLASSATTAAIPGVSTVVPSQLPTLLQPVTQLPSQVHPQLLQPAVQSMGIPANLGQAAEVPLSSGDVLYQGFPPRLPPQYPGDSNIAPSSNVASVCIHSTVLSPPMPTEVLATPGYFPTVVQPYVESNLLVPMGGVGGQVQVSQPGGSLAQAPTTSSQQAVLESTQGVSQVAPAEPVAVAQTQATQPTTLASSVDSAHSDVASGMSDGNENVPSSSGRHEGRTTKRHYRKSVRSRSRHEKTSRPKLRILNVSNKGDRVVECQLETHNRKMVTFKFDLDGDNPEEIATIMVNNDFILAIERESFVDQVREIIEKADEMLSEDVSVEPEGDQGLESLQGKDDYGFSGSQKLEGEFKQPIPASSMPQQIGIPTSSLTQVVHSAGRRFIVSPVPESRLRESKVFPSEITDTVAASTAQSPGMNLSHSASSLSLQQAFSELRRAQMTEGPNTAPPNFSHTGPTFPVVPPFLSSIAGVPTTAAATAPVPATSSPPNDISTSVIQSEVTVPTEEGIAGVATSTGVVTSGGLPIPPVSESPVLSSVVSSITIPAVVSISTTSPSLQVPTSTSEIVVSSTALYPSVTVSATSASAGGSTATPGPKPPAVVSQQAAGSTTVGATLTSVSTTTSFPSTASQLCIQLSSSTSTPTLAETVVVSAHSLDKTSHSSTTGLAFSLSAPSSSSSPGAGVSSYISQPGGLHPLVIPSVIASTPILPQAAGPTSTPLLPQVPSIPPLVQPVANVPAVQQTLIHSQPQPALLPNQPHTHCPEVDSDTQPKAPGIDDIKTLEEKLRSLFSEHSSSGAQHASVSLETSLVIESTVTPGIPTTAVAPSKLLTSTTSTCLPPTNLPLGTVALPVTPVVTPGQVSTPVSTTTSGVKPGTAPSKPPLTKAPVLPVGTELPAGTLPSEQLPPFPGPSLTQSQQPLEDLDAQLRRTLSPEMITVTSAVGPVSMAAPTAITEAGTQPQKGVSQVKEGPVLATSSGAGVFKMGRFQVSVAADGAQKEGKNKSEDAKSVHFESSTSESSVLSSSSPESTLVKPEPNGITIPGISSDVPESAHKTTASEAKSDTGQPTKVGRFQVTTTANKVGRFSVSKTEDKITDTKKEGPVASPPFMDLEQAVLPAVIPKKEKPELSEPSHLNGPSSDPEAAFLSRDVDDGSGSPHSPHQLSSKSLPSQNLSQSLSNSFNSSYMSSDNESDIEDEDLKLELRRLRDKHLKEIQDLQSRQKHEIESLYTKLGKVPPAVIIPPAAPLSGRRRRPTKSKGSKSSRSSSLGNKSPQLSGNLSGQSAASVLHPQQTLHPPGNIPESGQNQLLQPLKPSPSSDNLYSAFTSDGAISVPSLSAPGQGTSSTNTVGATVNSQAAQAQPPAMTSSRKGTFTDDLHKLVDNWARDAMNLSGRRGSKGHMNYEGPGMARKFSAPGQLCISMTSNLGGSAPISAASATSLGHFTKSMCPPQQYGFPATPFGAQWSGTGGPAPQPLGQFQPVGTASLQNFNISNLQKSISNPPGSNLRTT
Sequence of panel of more than 300 wild-type and mutant kinases (313 kinase panel) (Homo sapiens, UniProt O60674) (O60674 whole entry, change not shown): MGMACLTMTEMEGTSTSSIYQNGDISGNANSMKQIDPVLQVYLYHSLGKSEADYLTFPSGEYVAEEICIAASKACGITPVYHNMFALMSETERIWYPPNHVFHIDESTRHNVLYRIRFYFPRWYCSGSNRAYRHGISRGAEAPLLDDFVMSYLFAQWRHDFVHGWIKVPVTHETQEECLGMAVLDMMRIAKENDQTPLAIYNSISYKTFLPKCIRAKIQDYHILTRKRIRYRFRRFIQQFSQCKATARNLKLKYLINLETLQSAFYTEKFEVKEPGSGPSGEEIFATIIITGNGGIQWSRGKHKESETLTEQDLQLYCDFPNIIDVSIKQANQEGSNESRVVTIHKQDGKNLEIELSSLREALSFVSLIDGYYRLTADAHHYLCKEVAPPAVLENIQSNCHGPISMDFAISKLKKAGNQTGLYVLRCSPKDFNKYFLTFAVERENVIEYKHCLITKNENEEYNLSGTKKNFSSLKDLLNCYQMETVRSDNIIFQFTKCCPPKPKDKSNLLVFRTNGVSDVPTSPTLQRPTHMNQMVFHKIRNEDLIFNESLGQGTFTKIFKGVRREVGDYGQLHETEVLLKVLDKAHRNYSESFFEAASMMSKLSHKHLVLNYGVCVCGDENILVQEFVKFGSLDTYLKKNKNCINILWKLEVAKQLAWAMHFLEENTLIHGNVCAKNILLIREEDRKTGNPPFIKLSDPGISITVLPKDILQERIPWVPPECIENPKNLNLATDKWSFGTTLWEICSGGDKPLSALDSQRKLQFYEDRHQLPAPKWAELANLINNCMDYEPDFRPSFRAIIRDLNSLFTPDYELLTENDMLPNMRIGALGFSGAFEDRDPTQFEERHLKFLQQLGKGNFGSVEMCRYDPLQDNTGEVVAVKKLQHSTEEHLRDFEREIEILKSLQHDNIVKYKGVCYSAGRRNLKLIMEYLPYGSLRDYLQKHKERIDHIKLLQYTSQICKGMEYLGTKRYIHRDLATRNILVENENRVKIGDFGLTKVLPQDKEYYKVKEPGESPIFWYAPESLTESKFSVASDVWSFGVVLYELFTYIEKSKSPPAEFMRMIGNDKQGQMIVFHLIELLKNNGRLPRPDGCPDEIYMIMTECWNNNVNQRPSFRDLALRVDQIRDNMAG

Compound | %-inhibition of JAK2 [1] [%] | %-inhibition of MSK2 [2] [%] | %-inhibition of PKACβ [3] [%] | %-inhibition of RSK2 [4] [%] | %-inhibition of PLK1 [5] [%] | %-inhibition of MAP2K5 [6] [%] | %-inhibition of MAPKAPK5 [7] [%] | %-inhibition of WNK1 [8] [%] | %-inhibition of TAK1-TAB1 [9] [%] | %-inhibition of EGFR(d746-750) [9] [%] | %-inhibition of EGFR(d746-750/T790M) [9] [%] | %-inhibition of LYNb [9] [%] | %-inhibition of PKCβ2 [9] [%] | %-inhibition of SRM [9] [%] | %-inhibition, ALK [10] [%] | %-inhibition of NPM1-ALK [9] [%] | %-inhibition of EML4-ALK [9] [%]
C[C@@H](Oc1cc(-c2cnn(C3CCNCC3)c2)cnc1N)c1c(Cl)ccc(F)c1Cl [crizotinib] | 98 | -1.8 | -2.3 | 0.217 | -3 | 24 | -3.19 | -3 | 5 | 2 | 8 | 34 | -1.6 | 1.51 |  |  | 
Cc1ccc(Nc2nccc(N(C)c3ccc4c(C)n(C)nc4c3)n2)cc1S(N)(=O)=O [pazopanib] | 50 | 1.45 | 0.211 | 9 | 1.15 | 13 | -4 | -3.67 | -4.34 |  |  | 85 | 4.55 | 63 | 48 | 21 | 27
COc1cc2c(Nc3ccc(Br)cc3F)ncnc2cc1OCC1CCN(C)CC1 [vandetanib] | 0.942 | -3.21 | -0.0886 | 5.7 | -3.6 | 43 | -0.931 | -2.36 | 6 | 100 | 85 | 91 | -2.13 | 39 |  | 28 | 20
